# PubChem BioAssay (NCI)
#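 Cells were grown in 96-well plates and exposed to each compound for 48 hours at five concentrations; endpoints were interpolated linearly between bracketing concentrations, or set to the highest concentration if not reached. The concentration for full growth arrest is given as TGI.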
# Key:
# Assay in all cases: NCI anticancer screen, dose series, 48 h
# [1] = test system: HT29 colon
# [2] = test system: HOP-92 NSCLC
# [3] = test system: A549 NSCLC
# [4] = test system: SK-MEL-5 melanoma
# [5] = test system: TK-10 renal
# [6] = test system: NCI-H460 lung
# [7] = test system: NCI-H226 lung
# [8] = test system: SW-620 colon
# [9] = test system: MALME-3M melanoma
# [10] = test system: RPMI-8226 leukemia
# [11] = test system: SK-OV-3 ovarian
# [12] = test system: A498 renal
# [13] = test system: SK-MEL-28 melanoma
# [14] = test system: SK-MEL-2 melanoma
# [15] = test system: MDA-N
# [16] = test system: NCI-H522 lung
# [17] = test system: HOP-62 NSCLC
# [18] = test system: CAKI-1 renal
# [19] = test system: U251 CNS
# [20] = test system: DU-145 prostate
# [21] = test system: COLO 205 colon
# [22] = test system: SNB-75 CNS
# [23] = test system: OVCAR-4 ovarian
# [24] = test system: NCI-H23 lung
# [25] = test system: OVCAR-5 ovarian
# [26] = test system: HCC-2998 colon
# [27] = test system: HCT-15 colon
# [28] = test system: SF-295 CNS
# [29] = test system: SF-268 CNS
# [30] = test system: NCI/ADR-RES ovarian
# [31] = test system: LOX IMVI melanoma
# [32] = test system: MDA-MB-231 breast
# [33] = test system: OVCAR-3 ovarian
# [34] = test system: SR leukemia
# [35] = test system: M14 melanoma
# [36] = test system: RXF 393 renal
# [37] = test system: HL-60(TB) leukemia
# [38] = test system: UACC-257 melanoma
# [39] = test system: MDA-MB-435
# [40] = test system: OVCAR-8 ovarian
# [41] = test system: UACC-62 melanoma
# [42] = test system: CCRF-CEM leukemia
# [43] = test system: K-562 leukemia
# [44] = test system: PC-3 prostate
# [45] = test system: IGROV1 ovarian
# [46] = test system: SNB-19 CNS
# [47] = test system: MCF7 breast
# [48] = test system: UO-31 renal
# [49] = test system: T-47D breast
# [50] = test system: ACHN renal
# [51] = test system: KM12 colon
# [52] = test system: EKVX NSCLC
# [53] = test system: HS 578T breast
# [54] = test system: MOLT-4 leukemia
# [55] = test system: 786-0 renal
# [56] = test system: SN12C renal
# [57] = test system: HCT-116 colon
# [58] = test system: SF-539 CNS
# [59] = test system: BT-549 breast
smiles,measurement,setting,value
CC(C(=O)NCCNC(=O)CCCC(=O)N(C)O)C(=O)NCCNC(=O)CCCC(=O)N(C)O,TGI,[1],> 100 µM
same,TGI,[2],> 100 µM
same,TGI,[3],> 100 µM
same,TGI,[4],> 100 µM
same,TGI,[5],> 100 µM
same,TGI,[6],> 100 µM
same,TGI,[7],> 100 µM
same,TGI,[8],> 100 µM
same,TGI,[9],> 100 µM
same,TGI,[10],> 100 µM
same,TGI,[11],> 100 µM
same,TGI,[12],> 100 µM
same,TGI,[13],> 100 µM
same,TGI,[14],> 100 µM
same,TGI,[15],> 100 µM
same,TGI,[16],> 100 µM
same,TGI,[17],> 100 µM
same,TGI,[18],> 100 µM
same,TGI,[19],> 100 µM
same,TGI,[20],> 100 µM
same,TGI,[21],> 100 µM
same,TGI,[22],> 100 µM
same,TGI,[23],> 100 µM
same,TGI,[24],> 100 µM
same,TGI,[25],> 100 µM
same,TGI,[26],> 100 µM
same,TGI,[27],> 100 µM
same,TGI,[28],> 100 µM
same,TGI,[29],> 100 µM
same,TGI,[30],> 100 µM
same,TGI,[31],> 100 µM
same,TGI,[32],> 100 µM
same,TGI,[33],> 100 µM
same,TGI,[34],> 100 µM
same,TGI,[35],> 100 µM
same,TGI,[36],> 100 µM
same,TGI,[37],> 100 µM
same,TGI,[38],> 100 µM
same,TGI,[39],> 100 µM
same,TGI,[40],> 100 µM
same,TGI,[41],> 100 µM
same,TGI,[42],> 100 µM
same,TGI,[43],> 100 µM
same,TGI,[44],> 100 µM
same,TGI,[45],> 100 µM
same,TGI,[46],> 100 µM
same,TGI,[47],> 100 µM
same,TGI,[48],> 100 µM
same,TGI,[49],> 100 µM
same,TGI,[50],> 100 µM
same,TGI,[51],> 100 µM
same,TGI,[52],> 100 µM
same,TGI,[53],> 100 µM
same,TGI,[54],> 100 µM
OCC1C2CCC3(OCCO3)C12 (centres undefined),TGI,[1],> 100 µM
same,TGI,[55],> 100 µM
same,TGI,[2],> 100 µM
same,TGI,[3],> 100 µM
same,TGI,[4],> 100 µM
same,TGI,[5],> 100 µM
same,TGI,[6],> 100 µM
same,TGI,[7],> 100 µM
same,TGI,[8],> 100 µM
same,TGI,[9],> 100 µM
same,TGI,[10],> 100 µM
same,TGI,[11],> 100 µM
same,TGI,[13],> 100 µM
same,TGI,[14],> 100 µM
same,TGI,[15],> 100 µM
same,TGI,[16],> 100 µM
same,TGI,[17],> 100 µM
same,TGI,[56],> 100 µM
same,TGI,[18],> 100 µM
same,TGI,[19],> 100 µM
same,TGI,[20],> 100 µM
same,TGI,[21],> 100 µM
same,TGI,[57],> 100 µM
same,TGI,[22],> 100 µM
same,TGI,[58],> 100 µM
same,TGI,[23],> 100 µM
same,TGI,[24],33.7 µM
same,TGI,[25],> 100 µM
same,TGI,[26],> 100 µM
same,TGI,[27],> 100 µM
same,TGI,[28],> 100 µM
same,TGI,[29],> 100 µM
same,TGI,[30],> 100 µM
same,TGI,[31],> 100 µM
same,TGI,[32],> 100 µM
same,TGI,[33],> 100 µM
same,TGI,[34],> 100 µM
same,TGI,[35],> 100 µM
same,TGI,[36],> 100 µM
same,TGI,[38],> 100 µM
same,TGI,[39],> 100 µM
same,TGI,[40],> 100 µM
same,TGI,[41],33 µM
same,TGI,[42],> 100 µM
same,TGI,[43],> 100 µM
same,TGI,[44],> 100 µM
same,TGI,[45],> 100 µM
same,TGI,[46],> 100 µM
same,TGI,[47],> 100 µM
same,TGI,[48],29.6 µM
same,TGI,[50],> 100 µM
same,TGI,[51],> 100 µM
same,TGI,[52],> 100 µM
same,TGI,[59],35.6 µM
same,TGI,[54],> 100 µM
